In PubChem BioAssay (NCI):
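Five compound concentrations were applied to cells in 96-well plates for 48 hours; endpoints were derived by simple linear interpolation of the resulting dose-response curve. GI50 = concentration required for 50% inhibition of growth. Definition used: TGI = concentration required for complete inhibition of growth.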

How the values were obtained:
Assay in all cases: NCI-60 cell line screen, 48 h
TK-10 renal = test system: TK-10 renal
SNB-75 CNS = test system: SNB-75 CNS
SF-539 CNS = test system: SF-539 CNS
U251 CNS = test system: U251 CNS
COLO 205 colon = test system: COLO 205 colon
HL-60(TB) leukemia = test system: HL-60(TB) leukemia
NCI-H460 lung = test system: NCI-H460 lung
SR leukemia = test system: SR leukemia
HS 578T breast = test system: HS 578T breast
EKVX NSCLC = test system: EKVX NSCLC
OVCAR-8 ovarian = test system: OVCAR-8 ovarian
SK-MEL-5 melanoma = test system: SK-MEL-5 melanoma
UO-31 renal = test system: UO-31 renal
HCC-2998 colon = test system: HCC-2998 colon
M14 melanoma = test system: M14 melanoma
SNB-19 CNS = test system: SNB-19 CNS
RPMI-8226 leukemia = test system: RPMI-8226 leukemia
CAKI-1 renal = test system: CAKI-1 renal
MDA-MB-231 breast = test system: MDA-MB-231 breast
T-47D breast = test system: T-47D breast
SK-MEL-28 melanoma = test system: SK-MEL-28 melanoma
A498 renal = test system: A498 renal
RXF 393 renal = test system: RXF 393 renal
NCI/ADR-RES ovarian = test system: NCI/ADR-RES ovarian
LOX IMVI melanoma = test system: LOX IMVI melanoma
SK-MEL-2 melanoma = test system: SK-MEL-2 melanoma
HT29 colon = test system: HT29 colon
HOP-62 NSCLC = test system: HOP-62 NSCLC
786-0 renal = test system: 786-0 renal
HCT-116 colon = test system: HCT-116 colon
K-562 leukemia = test system: K-562 leukemia
SW-620 colon = test system: SW-620 colon
PC-3 prostate = test system: PC-3 prostate
MALME-3M melanoma = test system: MALME-3M melanoma
KM12 colon = test system: KM12 colon
SK-OV-3 ovarian = test system: SK-OV-3 ovarian
MOLT-4 leukemia = test system: MOLT-4 leukemia
IGROV1 ovarian = test system: IGROV1 ovarian
NCI-H522 lung = test system: NCI-H522 lung
NCI-H23 lung = test system: NCI-H23 lung
NCI-H226 lung = test system: NCI-H226 lung
OVCAR-5 ovarian = test system: OVCAR-5 ovarian
SN12C renal = test system: SN12C renal
CCRF-CEM leukemia = test system: CCRF-CEM leukemia
OVCAR-3 ovarian = test system: OVCAR-3 ovarian
HCT-15 colon = test system: HCT-15 colon
BT-549 breast = test system: BT-549 breast
SF-268 CNS = test system: SF-268 CNS
UACC-257 melanoma = test system: UACC-257 melanoma
ACHN renal = test system: ACHN renal
UACC-62 melanoma = test system: UACC-62 melanoma
DU-145 prostate = test system: DU-145 prostate
MDA-MB-435 = test system: MDA-MB-435
MCF7 breast = test system: MCF7 breast
HOP-92 NSCLC = test system: HOP-92 NSCLC
SF-295 CNS = test system: SF-295 CNS
A549 NSCLC = test system: A549 NSCLC
OVCAR-4 ovarian = test system: OVCAR-4 ovarian

With `CCN1C(=O)N(CC)C2C1NN=c1s/c(=C\c3ccc[nH]3)c(=O)n12` (stereo not drawn) the GI50 (TK-10 renal) was > 47.8 µM, the TGI (TK-10 renal) was > 100 µM and the GI50 (SNB-75 CNS) was 0.14 µM. For the same molecule, the TGI (SNB-75 CNS) was 0.598 µM, the GI50 (SF-539 CNS) was 0.246 µM and the TGI (SF-539 CNS) was 1.05 µM. The GI50 (U251 CNS) was 0.446 µM, the TGI (U251 CNS) was > 100 µM and the GI50 (COLO 205 colon) was 0.349 µM. The TGI (COLO 205 colon) was 1.82 µM, the GI50 (HL-60(TB) leukemia) was 0.285 µM and the TGI (HL-60(TB) leukemia) was 1.4 µM. The GI50 (NCI-H460 lung) was 0.36 µM, the TGI (NCI-H460 lung) was > 41.8 µM and the GI50 (SR leukemia) was 0.148 µM. The TGI (SR leukemia) was > 38.2 µM, the GI50 (HS 578T breast) was 0.335 µM and the TGI (HS 578T breast) was > 100 µM. For the same molecule, the GI50 (EKVX NSCLC) was 0.852 µM, the TGI (EKVX NSCLC) was > 100 µM and the GI50 (OVCAR-8 ovarian) was 0.85 µM. For the same molecule, the TGI (OVCAR-8 ovarian) was > 100 µM, the GI50 (SK-MEL-5 melanoma) was 0.309 µM and the TGI (SK-MEL-5 melanoma) was > 41.5 µM. For the same molecule, the GI50 (UO-31 renal) was 0.719 µM, the TGI (UO-31 renal) was > 100 µM and the GI50 (HCC-2998 colon) was 1.82 µM. The TGI (HCC-2998 colon) was > 100 µM, the GI50 (M14 melanoma) was 0.385 µM and the TGI (M14 melanoma) was > 100 µM. For the same molecule, the GI50 (SNB-19 CNS) was 0.626 µM, the TGI (SNB-19 CNS) was > 100 µM and the GI50 (RPMI-8226 leukemia) was 0.481 µM. The TGI (RPMI-8226 leukemia) was > 100 µM, the GI50 (CAKI-1 renal) was 0.301 µM and the TGI (CAKI-1 renal) was > 100 µM. The GI50 (MDA-MB-231 breast) was 3.01 µM, the TGI (MDA-MB-231 breast) was > 100 µM and the GI50 (T-47D breast) was 0.4 µM. The TGI (T-47D breast) was > 100 µM, the TGI (SK-MEL-28 melanoma) was > 100 µM and the GI50 (A498 renal) was 0.102 µM. The TGI (A498 renal) was 0.622 µM, the GI50 (RXF 393 renal) was 0.286 µM and the TGI (RXF 393 renal) was 2.19 µM. For the same molecule, the GI50 (NCI/ADR-RES ovarian) was 0.413 µM, the TGI (NCI/ADR-RES ovarian) was > 100 µM and the GI50 (LOX IMVI melanoma) was 0.578 µM. The TGI (LOX IMVI melanoma) was > 100 µM, the GI50 (SK-MEL-2 melanoma) was 0.502 µM and the TGI (SK-MEL-2 melanoma) was > 100 µM. The GI50 (HT29 colon) was 0.342 µM, the GI50 (HOP-62 NSCLC) was 0.603 µM and the TGI (HOP-62 NSCLC) was > 100 µM. For the same molecule, the GI50 (786-0 renal) was 0.614 µM, the TGI (786-0 renal) was > 100 µM and the GI50 (HCT-116 colon) was 0.453 µM. For the same molecule, the TGI (HCT-116 colon) was > 100 µM, the GI50 (K-562 leukemia) was 0.245 µM and the TGI (K-562 leukemia) was > 100 µM. The GI50 (SW-620 colon) was 0.326 µM, the TGI (SW-620 colon) was > 100 µM and the GI50 (PC-3 prostate) was 0.372 µM. For the same molecule, the TGI (PC-3 prostate) was > 100 µM, the GI50 (MALME-3M melanoma) was 0.546 µM and the TGI (MALME-3M melanoma) was > 100 µM. For the same molecule, the GI50 (KM12 colon) was 0.286 µM, the TGI (KM12 colon) was > 45 µM and the GI50 (SK-OV-3 ovarian) was 0.301 µM. The TGI (SK-OV-3 ovarian) was > 100 µM, the GI50 (MOLT-4 leukemia) was 0.543 µM and the TGI (MOLT-4 leukemia) was > 100 µM. For the same molecule, the GI50 (IGROV1 ovarian) was 0.838 µM, the TGI (IGROV1 ovarian) was > 100 µM and the GI50 (NCI-H522 lung) was 0.244 µM. The TGI (NCI-H522 lung) was 8.34 µM, the GI50 (NCI-H23 lung) was 1.34 µM and the TGI (NCI-H23 lung) was > 100 µM. The TGI (NCI-H226 lung) was > 100 µM, the GI50 (OVCAR-5 ovarian) was 1.59 µM and the TGI (OVCAR-5 ovarian) was > 100 µM. The GI50 (SN12C renal) was 0.991 µM, the TGI (SN12C renal) was > 100 µM and the GI50 (CCRF-CEM leukemia) was 0.402 µM. For the same molecule, the TGI (CCRF-CEM leukemia) was > 100 µM, the GI50 (OVCAR-3 ovarian) was 0.279 µM and the TGI (OVCAR-3 ovarian) was 0.948 µM. For the same molecule, the GI50 (HCT-15 colon) was 0.337 µM, the TGI (HCT-15 colon) was > 100 µM and the GI50 (BT-549 breast) was 0.834 µM. For the same molecule, the TGI (BT-549 breast) was > 100 µM, the GI50 (SF-268 CNS) was 0.7 µM and the TGI (SF-268 CNS) was > 100 µM. For the same molecule, the GI50 (UACC-257 melanoma) was > 100 µM, the TGI (UACC-257 melanoma) was > 100 µM and the GI50 (ACHN renal) was 0.538 µM. For the same molecule, the TGI (ACHN renal) was > 100 µM, the GI50 (UACC-62 melanoma) was 0.435 µM and the TGI (UACC-62 melanoma) was > 100 µM. For the same molecule, the GI50 (DU-145 prostate) was 0.496 µM, the TGI (DU-145 prostate) was > 100 µM and the GI50 (MDA-MB-435) was 0.0832 µM. The TGI (MDA-MB-435) was 0.421 µM, the GI50 (MCF7 breast) was 0.273 µM and the TGI (MCF7 breast) was > 100 µM. For the same molecule, the GI50 (HOP-92 NSCLC) was 13.4 µM, the TGI (HOP-92 NSCLC) was > 100 µM and the GI50 (SF-295 CNS) was 0.334 µM. For the same molecule, the TGI (SF-295 CNS) was > 40.3 µM, the GI50 (A549 NSCLC) was 0.523 µM and the TGI (A549 NSCLC) was > 100 µM. For the same molecule, the GI50 (OVCAR-4 ovarian) was 1.68 µM and the TGI (OVCAR-4 ovarian) was > 100 µM.
